In patent publication US20030104946A1, “Herbicidal mixture comprising a benzoyl derivative, a fertilizer containing nitrogen and an adjuvant” (priority 2001, published 2003) one finds rice damage and maize damage data, which are given here for one compound.

In data set [1] the test system is ORYSP (Transplanted Paddy Rice). In words: Effect on weeds in rice by water application (Example 3). The class given is in vivo. The conditions noted are these: mixtures of Table 4. From the text: Seeds of the various weed species and rice were planted in a sandy-loamy soil in a greenhouse under good growth conditions. Three weeks after sowing the tank mixture containing the formulated test compound was applied to the plants submerged in the paddy water. The plants were visually assessed three weeks after application, and the percentage control of the plants is-shown in Table 4 in comparison with untreated controls.

For data set [2], the system named is ZEAMA (Maize). In words: Weed control postemergence in maize under field conditions, outdoor pot trial (Example 4). To be noted: Tables 5 and 6. The class given is in vivo. From the text: Seeds of various crop and weed species were planted in a sandy-loamy soil and placed in a climate chamber in a greenhouse under good growth conditions. Four weeks after sowing, the plants were sprayed with a tank mixture containing the formulated test compound at a spray rate of 300 l/ha of spray solution. The plants were visually assessed fourteen days after application, and the percentage control of the plants is shown in Tables 1 and 2.
Using the method of Example 1 but in an outdoor pot trial in the field there were obtained the following results shown in Tables 5, 6 and 7. […]

Take `CCS(=O)(=O)c1ccc(C(=O)C2C(=O)CCCC2=O)c(Cl)c1C1=NOC(CC#N)C1` (centres unmarked) [B2, 2-[2-chloro-3-(5-cyanomethylisoxazolin-3-yl)-4-ethylsulfonylbenzoyl]cyclohexane-1,3-dione]: the rice damage entry in data set [1] is “No rice damage was observed”. The maize damage result in data set [2] was “No maize damage was observed”.
